Drawing on patent US8080558B2, “4-(tetrazol-5-yl)-quinazoline derivatives as anti-cancer agent” (Natco Pharma Limited, priority 2007, dated 2011), this text covers invasiveness for one molecule.

This assay concerns A549 cells. The experiment in a line: Matrigel invasion assay (modified Boyden chamber), A549 cells. Type of assay: cell-based. The conditions noted are these: 100 to 800 ng/ml. As to the method: The in vitro invasiveness of H1299 or A549 cells in the presence of various concentrations of NRC compounds (as determined by MTT assay) was assessed using a modified Boyden chamber assay. Cells were treated with these compounds for 48 h. 1×10^6 cells were suspended in 600 μl of serum-free medium supplemented with 0.2% BSA and placed in the upper compartment of the transwell chambers (Corning Costar Fischer Scientific Cat #07-200-158, Pittsburgh Pa.) coated with Matrigel (0.7 mg/ml). The lower compartment of the chamber was filled with 200 μl of serum-medium and the cells were allowed to migrate for 24 h. After incubation, the cells were fixed and stained with Hema-3 and quantified as previously described (Mohanam, et al. 1993). The migrated cells were quantified as percent invasion.
Matrigel invasion was performed as described in materials and methods. […] Using H1299 cells similar retardation patterns of invasion was observed.

As for `C#Cc1cccc(Nc2ncnc3cc(OCCOC)c(OCCOC)cc23)c1` [Erlotinib], the invasiveness entry was “decreased invasiveness in a dose dependent manner”.
